Results: patent US5807688A (priority 1995, dated 1998)
Where “and” joins values, the source holds several entries; their conditions need not be identical. Identical values can stand only once.

Columns and labels:
[1] = system: antibody NPN43C9, elicited to phosphonamidate hapten (9.11); design: kcat/Km: unit not given here; conditions: cited from earlier work; for Kd: read-out: Kd or Ki
[2] = mouse, in vivo, ip, 0.5 h; cited from earlier work
[3] = molecular target: carboxypeptidase G2 (CPG2) (Pseudomonas sp., UniProt P06621); conditions: cited from earlier work
Sequence of carboxypeptidase G2 (CPG2) (P06621 23-415): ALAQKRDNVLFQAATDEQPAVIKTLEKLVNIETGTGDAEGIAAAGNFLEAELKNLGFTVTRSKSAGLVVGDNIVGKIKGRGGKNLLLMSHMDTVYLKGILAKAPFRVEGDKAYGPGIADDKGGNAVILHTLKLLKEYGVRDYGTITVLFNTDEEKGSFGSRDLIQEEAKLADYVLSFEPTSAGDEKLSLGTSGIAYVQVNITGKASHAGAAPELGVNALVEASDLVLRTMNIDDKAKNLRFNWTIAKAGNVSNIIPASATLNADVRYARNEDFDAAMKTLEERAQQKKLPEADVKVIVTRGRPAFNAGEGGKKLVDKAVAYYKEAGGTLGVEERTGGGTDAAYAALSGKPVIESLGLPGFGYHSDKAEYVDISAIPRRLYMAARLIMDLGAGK

[4] = system: LoVo cells
[5] = system: monoclonal antibody 49.AG.659.12; conditions: cited from earlier work
[6] = system: monoclonal antibody EA11-D7; type: binding, mouse; conditions: read-out: I50
[7] = molecular target: monoclonal antibody EA11-D7 (IgG1), Appendix line 32, elicited to TSA (7.2); type: binding, mouse
[8] = molecular target: catalytic monoclonal antibody DF8-D5 (IgG1), elicited to phosphonamidate ester hapten (7.2), hybridoma ECACC 96042612; type: biochemical, mouse; conditions: for Km / kcat / kcat/Km / kcat/kun: pH 6.5
[9] = system: monoclonal antibody CC11-4B4 (IgG1), Appendix line 1, elicited to TSA (7.4); type: binding, mouse; conditions: inhibition elisa; read-out: aK (ELISA) (converted)
[10] = system: monoclonal antibody AB9-16H6 (IgG1), Appendix line 3, elicited to TSA (7.4); type: binding, mouse; conditions: inhibition elisa; read-out: aK (ELISA) (converted)
[11] = system: monoclonal antibody DG10-8G7 (IgG1), Appendix line 4, elicited to TSA (7.4); type: binding, mouse; conditions: inhibition elisa; read-out: aK (ELISA)
[12] = system: monoclonal antibody AC7-4A10 (IgG1), Appendix line 8, elicited to TSA (7.4); type: binding, mouse; conditions: inhibition elisa; read-out: aK (ELISA) (converted)
[13] = system: JAR human choriocarcinoma cell line; conditions: cited from earlier work
[14] = system: monoclonal antibody 6D9, raised to phosphonate haptens (2.53) and (2.54); conditions: cited from earlier work
[15] = system: monoclonal antibody CF7 (IgG2a), Appendix line 14, elicited to TSA (7.2); type: binding, mouse
[16] = molecular target: monoclonal antibody CF6 (IgG1), Appendix line 13, elicited to TSA (7.2); type: binding, mouse
[17] = system: chorismate mutase (EC 5.4.99.5), E. coli enzyme; conditions: cited from earlier work

Cc1ccc(OC(=O)Cc2ccccc2)cc1 [Me]
Km [1]: ~3000 µM
kcat [1]: 0.15 ± 0.03 s⁻¹
kcat/Km [1]: 1.01

CC(=O)c1ccc(OC(=O)Cc2ccccc2)cc1 [CH3 CO]
Km [1]: ~3000 µM
kcat [1]: ca. 0.87 s^-1
kcat/Km [1]: ca. 0.282

O=C(O)CC[C@H](NC(=O)c1ccc(N(CCCl)CCCl)cc1)C(=O)O [3.4, para-[bis(2-chloroethyl)amino]benzoyl-Lglutamic acid]
mean concentration, Gut [2]: 12.3
mean concentration, Kidney [2]: 2.9
mean concentration, Liver [2]: 22.0
mean concentration, Lung [2]: 0.2
mean concentration, Tumour [2]: < 0.05
Km [3]: 4.9 µM

O=C(Nc1cc(C(=O)O)cc(C(=O)O)c1)Oc1ccc(N(CCCl)CCCl)cc1 [9.2]
cytotoxicity of the prodrug alone [4]: significant amount of background cytotoxicity

O=Cc1ccc(OC(=O)Cc2ccccc2)cc1 [CHO]
Km [1]: 250 µM
kcat [1]: 1.0 ± 0.1 s⁻¹
kcat/Km [1]: 4.1
Kd [1]: 90000 ± 10000 nM

CC(C)[C@@H](N)C(=O)OC[C@H]1O[C@@H](n2cc(F)c(=O)[nH]c2=O)C[C@@H]1O [9.4]
Km [5]: 215 µM and 218 µM
kcat [5]: 0.0005 s⁻¹

CCOP(=O)(O)Cc1ccc([N+](=O)[O-])cc1 [9.8]
IC50 [6]: 30 nM

CCOP(=O)(Cc1ccc(NC(=O)CCCC(=O)O)cc1)Nc1cc(C(=O)O)cc(C(=O)O)c1 (stereo not drawn) [7.6, Ethyl N-[(3,5-dicarboxy)phenyl]-P-[N-(4'-carboxybutyroyl)-4-aminophenylmethyl]phosphonamidate]
Kd [7]: < 4 nM
Ki [8]: 25 nM and 40 nM

O=C(Cc1ccccc1)Oc1ccc(Cl)cc1 [Cl]
Km [1]: 720 µM
kcat [1]: 1.7 ± 0.2 s⁻¹
kcat/Km [1]: 0.049
Kd [1]: 180000 ± 40000 nM

O=C(O)CCCC(=O)Nc1ccc(CP(=O)(O)Nc2cc(C(=O)O)cc(C(=O)O)c2)cc1 [7.7, N-[(3,5-Dicarboxy)phenyl]-P-[N-(4'-carboxybutyroyl)-4-aminophenyl-methyl]phosphonamidic acid]
IC50 [9]: 76.9 nM
IC50 [10]: 833 nM
IC50 [11]: 10 nM
IC50 [12]: 0.455 nM

O=C(Cc1ccccc1)Oc1ccc([N+](=O)[O-])cc1 [NO2]
Km [1]: 53 µM
kcat [1]: ca. 25 s^-1
kcat/Km [1]: ca. 470
Kd [1]: 1000 nM

O=C(Nc1cc(C(=O)O)cc(C(=O)O)c1)Oc1ccc(F)cc1 [9.13, 4-Fluorophenyl N-[(3,5-dicarboxy)phenyl]carbamate]
Vmax [8]: 1.1 µM/min
Km [8]: 41 µM
kcat [8]: 0.12 s⁻¹
kcat/Km [8]: 0.17 E6
kcat/kun [8]: 4 E5

CS(=O)(=O)OCCN(CCCl)c1ccc(C(=O)O)cc1 [3.16]
IC50 [13]: 220000 ± 10000 nM

COc1ccc(OC(=O)Nc2cc(C(=O)O)cc(C(=O)O)c2)cc1 [9.14, 4-methoxyphenyl N-(3,5-dicarboxyphenyl)carbamate]
Km [8]: 58 µM
kcat [8]: 0.0817 s⁻¹
kcat/Km [8]: 0.08 E6
kcat/kun [8]: 1.2 E6

O=C(Cc1ccc(NC(=O)C(F)(F)F)cc1)O[C@H](c1ccc([N+](=O)[O-])cc1)[C@@H](CO)NC(=O)C(Cl)Cl [2.56]
rate enhancement, kcat/kuncat [14]: 1.8×10^3

CCOP(=O)(Cc1ccc(N)cc1)Nc1cc(C(=O)O)cc(C(=O)O)c1 (stereo not drawn) [7.37, Ethyl N-[(3,5-dicarboxy)phenyl]-P-(4-aminophenylmethyl)phosphonamidate]
kd, mean ([7]; biacore): 2.54e-05 s⁻¹
Ka (BIAcore) [15]: no binding
Ka (BIAcore) [16]: 2.19e+08 M⁻¹
ka ([16]; biacore): 56600 M⁻¹ s⁻¹
kd ([16]; biacore): 0.000258 s⁻¹

O=C(Nc1cc(C(=O)O)cc(C(=O)O)c1)Oc1ccc(Br)cc1 [9.12, 4-bromophenyl N-(3,5-dicarboxyphenyl)carbamate]
Km [8]: 80 µM
kcat [8]: 0.1 s⁻¹
kcat/Km [8]: 0.075 E6
kcat/kun [8]: 1 E5

O=C(N[C@H](CO)[C@H](OP(=O)(O)Cc1ccc(NC(=O)C(F)(F)F)cc1)c1ccc([N+](=O)[O-])cc1)C(Cl)Cl [2.54]
Ki [14]: 60 nM

O=C(Nc1cc(C(=O)O)cc(C(=O)O)c1)Oc1ccc([N+](=O)[O-])cc1 [9.9, 4-nitrophenyl N-(3,5-dicarboxyphenyl)carbamate]
Km [8]: 120 µM
kcat [8]: 0.3 s⁻¹
kcat/Km [8]: 0.15 E6
kcat/kun [8]: 300

C=C(O[C@@H]1C=C(C(=O)O)C=C[C@H]1O)C(=O)O [chorismate, (-)-Chorismic acid]
Km [17]: 15 µM
